Measured values: patent publication US20140308657A1, “SERINE PROTEASE INHIBITOR KAZAL ANTIBODIES” (priority 2010, published 2014)
Read-outs that look alike come from different tables or passages of the source. Where a SMILES comes first, the peptide text is derived from it. The star is where a group is joined. Cbz = O=C(OCc1ccccc1)*; CH2F = FC*

Legend:
prostate tumor cells = details: cited from earlier work
caspase 3 = experiment: Caspase 3 activity in S2-3 and Huh7T cells; assay type: cell-based, human; details: 40 hours treatment, caspase 3 kit
Experimental: FIG. 5B. The activation of caspase 3 (CDCA) in S2-3 cells treated with etoposide but not BFA/CHX/Z-VAD. The S2-3 cell and its parental cell Huh7T were either treated with SPDCA inducer BFA/CHX/ZVAD or CDCA inducer etoposide. The caspase activity was determined after […] treatment by Caspase 3 detection kit (Biovision, Mountain View, Calif.).
The same level of apoptosis induced by etoposide in S2-3 cell and Huh7T cell was confirmed by the examination of caspase 3 activity in these cells. After 40 hours treatment, all cells were lysed in […] lysis buffer. […] lysate of each sample was analyzed for caspase 3 activity test using caspase 3 detected kits [Biovision, Mountain View, Calif.]. […] Additionally, the activity of caspase3 was not increased in the cells, in which SPDCA was induced by BFA/CHX, even by double doses [FIG. 5B, B/C/ZX2].

Huh7T cells = experiment: Etoposide induced CDCA, annexin stain, Huh7T cells; assay type: cell-based, human; details: Huh7T cell, 40 hours treatment
Experimental: (§1) FIG. 5A. S2-3 and Huh7T cells were treated with CDCA inducer 400 μM etoposide. After 40 hours, the cells apoptosis was examined in microscope and stained with annexin.
(§2) 10^5 S2-3 and Huh7T cells were seeded in 60 mm dishes. When the cell reached 90% confluent, CDCA inducer etoposide was added. After 28-40 hours, the cell shrinkage, blebbing and detachment from culture was found in both cell lines. At the same time, the strong fluorescence stain by annexin was also observed in both cell lines [FIG. 5A]. The amount of apoptotic cells in two cell lines was very similar. Around 62% S2-3 cell was stained by annexin, while 58% of Huh7T cell was stained after 40 hours treatment [data not shown].

HepG2.215 and G54 = experiment: Etoposide induced CDCA in HepG2.215 and G54 cells; assay type: cell-based, human; details: HepG2.215 and G54, data not shown
Experimental: To study the influence of HCV replication upon SPDCA, G54 and Huh7T cells (its parent cell) were seeded in a 60 mm dish. SPDCA was induced by BFA/CHX/Z-VAD. […] The insensitivity of HCV replicon cell to SPDCA was also seen subsequently by annexin staining. Compared to the parental cells, much fewer HCV expressing cells were stained by annexin after being treated with SPDCA inducers BFA/CHX/Z-VAD [FIG. 8C, Annexin]. DNA fragmentation study also support that the HCV expressing cells were more resistant to apoptosis. 70 hours treatment of BFA/CHX/Z-VAD obviously triggered the DNA fragmentation in Huh7T cell, but not in G54 cells [FIG. 8D]. […] In contrast, both HepG2.215 and G54 are sensitive to CDCA induced by etoposide [data not shown].

S2-3 cells = experiment: Etoposide induced CDCA, annexin stain, S2-3 cells; assay type: cell-based, human; details: S2-3 cell, 40 hours treatment
Experimental: as §1, §2

HCV replicon = experiment: HCV replication in HCV replicon cells (Northern blot of HCV RNA); assay type: cell-based; details: 10^5 IU/ml overnight
Experimental: (§3) FIG. 7A-7B. SPIK in the HCV expressing cells. SPIK RNA was detected in the cells with/without HCV replicon as before. HCV RNA was defined by the hybridization of membrane with radio-labeled probe specified HCV.
(§4) FIG. 7B—HCV replicon cells were incubated with HCV polymerase inhibitor 888 (2 mM) 2 days (Lines 3 & 4 duplicate) and 10^5 IU/ml interferon-a overnight (Lines 5 & 6 duplicate) or left untreated (Line 1 & 2 duplicate). The suppressions of HCV RNA and SPIK RNA then were analyzed by Northern blot as before. The smear detected by HCV probe under the band of HCV RNA probably was the replication form of HCV.
(§5) Over-expression of SPIK RNA in G54 cells can be abrogated by inhibition of HCV replication. Treatment of HCV replicon cells with either 2 mM of the HCV polymerase inhibitor 888 for two days or 10^5 IU/ml interferon-a overnight has reduced HCV replication by approximately 90% [FIG. 7B, lane 3-6]. This is consistent with previous reports of these antiviral agents (55, 56).

SPIK RNA = SPIK RNA level in G54 HCV replicon cells after antiviral treatment; assay type: cell-based, human; details: 10^5 IU/ml overnight
Experimental: as §3, §4, §5

Q: For `NCCc1ccc(S(=O)(=O)F)cc1` [AEBSF, 4-2-aminoethyl-benzenesulfonyl fluoride], which “block of FADD induced apoptosis” value (prostate tumor cells; combining use of Z-VAD and AEBSF) is on record?
A: Its value is “completely blocked”.

Q: For `CC(NC(=O)C(NC(=O)OCc1ccccc1)C(C)C)C(=O)NC(CC(=O)O)C(=O)CF` (stereo not drawn) [Z-VAD] (Cbz-Val-Ala-Asp-CH2F; configuration not given here), which “block of FADD induced apoptosis” value (prostate tumor cells; alone) is on record?
A: The value was “unable to be completely blocked”.

Q: And the “caspase 3 activity” value (caspase 3)?
A: The value was “kept unchanged”.

Q: With `COc1cc([C@@H]2c3cc4c(cc3[C@@H](O[C@@H]3O[C@@H]5CO[C@@H](C)O[C@H]5[C@H](O)[C@H]3O)[C@H]3COC(=O)[C@H]23)OCO4)cc(OC)c1O` [etoposide] as the compound, how does the “cells stained by annexin” value (Huh7T cells) read?
A: Its value is 58%.

Q: And the “sensitivity to CDCA” value (HepG2.215 and G54)?
A: Its value is “sensitive”.

Q: What about the “cells stained by annexin” value (S2-3 cells) of the same compound?
A: The value was “Around 62%”.

Q: And the “caspase 3 activity” value (caspase 3)?
A: Its value is “at the same level in both cells”.

Q: For interferon-a, which “reduction of HCV replication” value (HCV replicon) is on record?
A: The value was “approximately 90%”.

Q: And the SPIK level (SPIK RNA)?
A: The SPIK level was “correspondingly decreased with HCV RNA”.
